Results reported in publication PMC12040169 (PLOS Biology, 2025).

assay: in vitro; conditions: human, hela cells, % viability

Row | SMILES | viability at 28.5 h, 10 µM [%]
1 | O=C(Nc1ccc2c(c1)nc1n2CCOC1)C1CCCCC1 [CBK307570] | 90
2 | CC(C)Nc1cc(OCc2ccc(F)cc2)ncn1 [CBK115654] | 103
3 | O=C(Nc1cc(Oc2cccnc2)cc([N+](=O)[O-])c1)c1nn2c(C(F)(F)F)cc(-c3cccs3)nc2c1Br [CBK262535] | 84.7
4 | COc1ccc([C@@]23CC[C@@H](NC(=O)Nc4cccc(C#N)c4)C[C@@H]2N(C)CC3)cc1OC [CBK036448T] | 103
5 | CCN1C(=O)c2[nH]nc(-c3ccccc3O)c2C1c1cccc(O)c1 (stereo not drawn) [CBK288159] | 95.9
6 | O=c1c([N+](=O)[O-])c(O)c2ccccc2n1Cc1ccccc1 [CBK291182] | 94.8
7 | Cc1ccc2nc(C)cc(C(=O)OCc3ccc(C(N)=O)cc3)c2c1 [CBK296676] | 97.8
8 | O=C(O)CCN1CCN(S(=O)(=O)c2ccc3ccccc3c2)CC1 [CBK269255] | 88.4
9 | Cc1ccc([N+](=O)[O-])cc1S(=O)(=O)NCC(=O)O [CBK266234] | 94.7
10 | O=C(c1n[nH]cc1Cl)N1CCCC(c2cc3ccccc3cn2)C1 (stereo not drawn) [CBK285062] | 88
11 | CCC(=O)Nc1ccc(-n2cnc(C(=O)NCc3cccnc3)c2)nc1 [CBK288603] | 115
12 | O=C(CC1(C(=O)O)CCCC1)NC1CCS(=O)(=O)C1 (stereo not drawn) [CBK286855] | 92.3
13 | COc1cccc(CN2CCN(C(=O)c3ccco3)[C@@H](C)C2)c1 [CBK284267] | 110
14 | CS(=O)(=O)N1CCN(c2ccccc2NC(=O)Cc2ccc(Cl)cc2)CC1 [CBK267605] | 94.9
15 | COc1cccc(CNC(C(=O)O)c2ccc3c(c2)OCO3)c1 (stereo not drawn) [CBK015420D] | 89.1
16 | O=C(CSc1nnc2sc3ccccc3n12)N1c2ccccc2Sc2ccccc21 [CBK265457] | 89
17 | C=Cn1ncc(CN(Cc2ccc(C)o2)CC2CCCO2)c1C (stereo not drawn) [CBK283292] | 101
18 | O=C([C@@H]1C[C@@H]2C=C[C@H]1C2)N1CCC(c2noc3cc(F)ccc23)CC1 [CBK281542] | 76.5
19 | COCCOCCCN1CCC2(CC1)NC(=O)Cc1ccc(C)cc12 [CBK040222] | 109
20 | CCCNC(=O)c1nn2c(C(F)(F)F)cc(-c3ccccc3)nc2c1Cl [CBK051499] | 110
21 | CCOc1cc2c(cc1NC(=O)CN(c1cccc(Cl)c1)S(C)(=O)=O)OC(C)C2 (stereo not drawn) [CBK248179] | 94.6
22 | O=C(O)CCNC1=Nc2ccccc2CCC1 [CBK278160] | 101

Row | SMILES | viability at 28.5 h, 10 µM [%]
23 | O=C(NC(C(=O)N/N=C/c1cccc(O)c1)c1n[nH]c(=O)c2ccccc12)c1ccccc1 (stereo not drawn) [CBK262853] | 89
24 | O=C(Cc1cccs1)N1CCC(n2nc(C3CC3)ccc2=O)CC1 [CBK284243] | 78.6
25 | CC(=O)Nc1ccc(-c2ccc(COC3CCN(C(=O)c4ccc(F)cc4F)CC3)cc2)cc1 [CBK149216] | 101
26 | CCOc1ccccc1-c1noc(CSc2nnc(-c3ccncc3)n2-c2cccc(C)c2)n1 [CBK269076] | 104
27 | CCOC(=O)/C(=N/Nc1cccc(C)c1)c1csc(N)n1 [CBK261059] | 97.9
28 | CC1(C(=O)O)COC(c2ccc([N+](=O)[O-])cc2)OC1 (stereo not drawn) [CBK286737] | 87.1
29 | Cc1ccc2nc(C)c(CCC(=O)O)c(O)c2c1 [CBK262946] | 91.8
30 | Nc1ncc(-c2ccc(-c3ccccc3)cc2)nc1NC1CCCCC1 [CBK063572] | 87.3
31 | Cc1cc(C(=O)N2C3CCC2CC(O)(c2ccnn2C)C3)sc1C (stereo not drawn) [CBK284518] | 103
32 | O=C(NCc1ccncc1)C1CC1c1ccccc1 (stereo not drawn) [CBK288242] | 107
33 | COc1ccccc1NC(=O)CCn1c(C(F)F)cc2cccnc21 [CBK285065] | 99.2
34 | Cc1cc(C)n(CC(=O)N2CCC(Nc3cccnn3)CC2)n1 [CBK306234] | 106
35 | COc1ccc(S(=O)(=O)NC(CCSC)c2nnc3ccccn23)cc1 (stereo not drawn) [CBK304402] | 109
36 | CCc1ccc(Oc2cc(N3CCC(C(=O)NC4CC4)CC3)ncn2)cc1 [CBK287854] | 102
37 | COCCNc1nc(-c2cccc(-c3ccccc3)c2)cnc1N [CBK063474] | 99.5
38 | COc1ccc(C(F)(F)F)cc1N [CBK038366] | 89.6
39 | COc1ccc(C(=O)N[C@H]2C[C@H]3C(=O)Nc4ccc(-c5ccsc5)cc4C(=O)N3C2)cc1 [CBK289362] | 91.7
40 | COc1cc(CN2CCN(S(=O)(=O)c3ccc(Cl)cc3)CC2)cc(OC)c1OC [CBK074499] | 91.3
41 | O=C(CN1CCOCC1)Nc1ccc(Br)cc1[N+](=O)[O-] [CBK267314] | 96.9
42 | Cc1cccc(OCCNC(=O)CSc2n[nH]c(=O)n2C2CC2)c1 [CBK295599] | 94.2
43 | Cc1cc(NC(=O)C2CCN(C(=O)CCSc3ccccc3)CC2)no1 [CBK304329] | 99
44 | Cc1nn(CC(=O)NC2CCC2)c(=O)c2cc3ccsc3n12 [CBK284103] | 103

Row | SMILES | viability at 28.5 h, 10 µM [%]
45 | Cc1ccc(C(C)(C)C)c(OC(=O)c2cnc(C)cn2)c1 [CBK090261] | 96.5
46 | CCCc1nnc([C@H]2CCN(Cc3ccc(S(C)(=O)=O)cc3)C2)o1 [CBK289402] | 100
47 | COc1cc(C(=O)Nc2ccc3oc(-c4cccnc4)nc3c2)ccc1OCc1ccc(Cl)cc1 [CBK264037] | 87.9
48 | O=C(c1cccc(S(=O)(=O)N2CCOCC2)c1)N(Cc1ccc(F)cc1)Cc1ccco1 [CBK265885] | 92.8
49 | Cc1cccc(-c2ccc3c(c2)C(=O)N2CC[C@H](NC(=O)NC(C)C)C[C@H]2C(=O)N3)c1C [CBK289567] | 97.9
50 | COc1cccc(CNCC(c2ccnn2C)C(C)C)n1 (stereo not drawn) [CBK304858] | 105
51 | CN1CC(C(=O)N2C3CCC2CC(c2ccc(F)cc2)C3)CC1=O (stereo not drawn) [CBK283769] | 96.3
52 | COc1ccc(N2CCN(CCNC(=O)Nc3ccc(Cl)cc3)CC2)cc1 [CBK268725] | 94.9
53 | O=c1cnn([C@H]2C[C@@H](O)[C@@H](CO)O2)c(=O)[nH]1 [CBK201162] | 93.4
54 | O=C(Nc1ccc(Cl)cc1)C(Cc1ccccc1)N1C(=O)c2cc(Cl)c(Cl)cc2C1=O (stereo not drawn) [CBK264172] | 99.2
55 | OCCCNC(=S)Nc1ccc(Br)cc1Cl [CBK086487] | 82.3
56 | Cc1nn(Cc2cccc(C(=O)O)c2)c(C)c1Br [CBK286950] | 100
57 | Cc1ccc2c(C)c(C(=O)Nc3sc4c(c3C(=O)NCc3ccco3)CCC4)oc2c1 [CBK267662] | 99.2
58 | O=C(Cn1nc(-c2cc3c(s2)CCC3)oc1=O)NC1CC1 [CBK283800] | 101
59 | O=C(N[C@H]1CO[C@H]2[C@@H]1OC[C@@H]2Nc1nccc(-c2cccc(F)c2)n1)C1CC1 [CBK289535] | 99.2
60 | NC(=S)N1N=C2CCCCC2C1c1ccccc1 (stereo not drawn) [CBK288371] | 84.2
61 | O=C(NCC1CCCCC1)N1CCN(c2ccc(F)cc2)CC1 [CBK156397] | 86.9
62 | COc1cc(CC(=O)Nc2cccc(-c3ccc(SC(F)(F)F)cc3)c2)cc(OC)c1OC [CBK132426] | 100
63 | Cc1ccc(CC2CCCN2CC(=O)NCc2ccccn2)cc1 (stereo not drawn) [CBK304070] | 96.6
64 | CN1CCC[C@H]1C(=O)Nc1ccc2[nH]ccc2c1 [CBK159699] | 97.6
65 | CCOC(=O)N1CCC(NS(=O)(=O)Cc2ccccc2[N+](=O)[O-])CC1 [CBK045467] | 97.3
66 | N#CCCCN1CCC(Oc2nccnc2OCc2ccccc2C(F)(F)F)CC1 [CBK153636] | 102

Row | SMILES | viability at 28.5 h, 10 µM [%]
67 | Cc1nc2cc(C(=O)NCC(C)(C)N3CCCCC3)ccc2n1C [CBK281862] | 86.4
68 | COc1ccc(C(=O)N2C[C@@H]3C[C@H](C2)c2ccc(-c4cccnc4)c(=O)n2C3)cc1 [CBK289182] | 86.7
69 | Cc1ccc(C(=O)NCc2cccnc2N(C)C2CCCCC2)cn1 [CBK306514] | 116
70 | O=C(O)c1ccc(CNC(=O)c2cnc(-c3ccc(F)cc3)c(-c3ccc(O)cc3)c2)cc1 [CBK037996] | 101
71 | CC1=NN(c2ccc(S(=O)(=O)O)cc2)C(=O)/C1=C/C=C/c1c(C)nn(-c2ccc(S(=O)(=O)O)cc2)c1O [CBK278317K] | 94.6
72 | O=C(NC[C@H]1C[C@@H]2CC[N@]1C[C@@H]2CN1CCN(c2ncccn2)CC1)c1ccco1 [CBK289115] | 88.1
73 | CNC(=O)C1(Cc2cccc(-c3cccs3)c2)CCN(C(=O)Cc2ccccc2)CC1 [CBK285745] | 93.3
74 | COc1cccc(/C=C2/SC(=S)N(C)C2=O)c1OCCCOc1ccc(C)cc1C [CBK264446] | 102
75 | OC1CCCCC1C1(NC(=S)Nc2ccccc2)CCCCC1 (stereo not drawn) [CBK026324] | 97.9
76 | O=C(/C=C/c1ccc(C(=O)Nc2cccnc2)cc1)Nc1cccnc1 [CBK265617] | 66.7
77 | CCN(Cc1ccccc1)C(=O)NCCCN1CCN(C)CC1 [CBK155212] | 102
78 | CCC(c1c(O)c2ccccc2oc1=O)c1cccc2ccccc12 (stereo not drawn) [CBK016684] | 102
79 | O=C(NCc1ccco1)c1cc(Br)cnc1N1CCOCC1 [CBK076268] | 94.6
80 | CC1CCc2n[nH]c(C(=O)NCCCC3CCOC3)c2C1 (stereo not drawn) [CBK283212] | 102
81 | CN1CCN(Cc2c(O)ccc3c(=O)c(-c4ccc(Cl)cc4)coc23)CC1 [CBK263314] | 102
82 | O=C(Nc1ccccc1N1CCNCC1)c1ccoc1 [CBK029442T] | 96.2
83 | OC(c1cccs1)C1CCN(Cc2ccc(Cn3cccn3)cc2)CC1 (stereo not drawn) [CBK307454] | 83.6
84 | CCCCCOc1ccc(Nc2cc(-c3ccccc3N(C)C)ncn2)cc1 [CBK090890] | 81.9
85 | COc1ccc2c(c1OC)C(=O)N1C2SC(C)(C)C1C(=O)O (stereo not drawn) [CBK011479] | 98.9

same assay, conditions: human, hela cells, % viability, bulk resorufin, single well

Row | SMILES | viability at 28.5 h, 10 µM [%]
86 | O=C1NC(=O)C(=Cc2ccc([N+](=O)[O-])o2)C(=O)N1 [CBK017848] | 106
87 | O=C(Nc1ccc(OC(F)(F)F)cc1)N1CCC2(CC1)OCCO2 [CBK045235] | 91.7
